Measured values published in PubChem BioAssay AID216 (DTP/NCI, 2004).
“And” between values parts separate entries of the source, which are not always exact repeats. Equal values may be shown once. Toxic doses and inconclusive results are not listed.

Test system: BDF1 mice, P288 leukemia ip, survival T/C
Experiment: NCI In Vivo Anticancer Drug Screen. Data for tumor model P288 Lymphocytic Leukemia (intraperitoneal) in B6D2F1 (BDF1) mice
Conditions: endpoint: survival time, mean or median, higher = longer survival
Experimental: The antitumor activity of compounds was measured in mice bearing transplantable tumors. Survival or tumor size were measured and the results are expressed as the measurement made in the treated group (T) divided by the measurement made in the vehicle treated control group (C). The tumor model used in this assay is P288 Lymphocytic Leukemia (intraperitoneal) in B6D2F1 (BDF1) mice

| Structure (SMILES) | T/C (dose: 5.0 mg/kg/injection, schedule: Q01DX010 (ip), vehicle: saline) | T/C (dose: 10.0 mg/kg/injection, schedule: Q01DX010 (ip), vehicle: saline) | T/C (dose: 20.0 mg/kg/injection, schedule: Q01DX010 (ip), vehicle: saline) | T/C (dose: 25.0 mg/kg/injection, schedule: Q01DX Z (ip), vehicle: carboxymethylcellulose (CMC)) | T/C (dose: 40.0 mg/kg/injection, schedule: Q01DX010 (ip), vehicle: saline) | T/C (dose: 80.0 mg/kg/injection, schedule: Q01DX010 (ip), vehicle: saline) | T/C (dose: 100.0 mg/kg/injection, schedule: Q01DX Z (ip), vehicle: carboxymethylcellulose (CMC)) | T/C (dose: 200.0 mg/kg/injection, schedule: Q01DX Z (ip), vehicle: carboxymethylcellulose (CMC)) | T/C (dose: 400.0 mg/kg/injection, schedule: Q01DX Z (ip), vehicle: carboxymethylcellulose (CMC)) | T/C (dose: 800.0 mg/kg/injection, schedule: Q01DX Z (ip), vehicle: carboxymethylcellulose (CMC)) | T/C (dose: 150.0 mg/kg/injection, schedule: Q01DX010 (ip), vehicle: saline) | T/C (dose: 300.0 mg/kg/injection, schedule: Q01DX010 (ip), vehicle: saline) | T/C (dose: 600.0 mg/kg/injection, schedule: Q01DX010 (ip), vehicle: saline) |
| --- | --- | --- | --- | --- | --- | --- | --- | --- | --- | --- | --- | --- | --- |
| O=c1[nH]c(=O)n(C2CC(O)C(CO)O2)cc1F (stereo not drawn) | 106 % of control | 109 % of control and 100 % of control | 112 % of control and 100 % of control | 111 % of control | 113 % of control | 118 % of control | 156 % of control and 163 % of control | 111 % of control and 124 % of control | 108 % of control | 86 % of control |  |  |  |
| C[C@H](N)C(=O)N[C@@H]1[C@H]2C(=C(O)C[C@@H](O)[C@@H]2O)C(=O)O[C@@H]1C |  |  |  |  |  |  |  |  |  |  | 112 % of control | 156 % of control | 212 % of control |
